Data: publication PMC12661054, “The CIP2A-TOPBP1 axis facilitates mitotic DNA repair via MiDAS and MMEJ” (Nature Communications, 2025)
Entries after “also recorded” stand apart in the source; their conditions may differ.

Assays:
Assay type in all cases: cell-based, human
[1] = test system: SLX4 Thr1260; test: SLX4 Thr1260 phosphorylation in mitotic HEK293TN cells (western blot); conditions: acute CDK1i (RO-3306 7 µM, 30 min) after 18 h 100 ng/ml nocodazole; eGFP-SLX4 or eGFP-TOPBP1 Co-IP
Protocol: (§1) GFP-Trap® Agarose Co-immunoprecipitation
(§2) HEK293TN cells were seeded to be ~25–30% confluence the next day in a 15 cm tissue culture dish. The following day cells were transfected using Lipofectamine 2000 transfection reagent (Thermo Fisher Scientific) with 24 µg of plasmid DNA encoding eGFP-SLX4 or eGFP-TOPBP1 expression cassettes following manufacturer’s instructions.
(§3) Forty eight hours post transfection cells were harvested after treatments as described, snap frozen on dry ice and stored at −80 °C. Cell pellets were removed from −80 storage and thawed on ice in 2.4 ml IP buffer 1 (100 mM NaCl, 0.2% Igepal CA-630, 1 mM MgCl2, 10% glycerol, 5 mM NaF, 50 mM Tris-HCl, pH 7.5), supplemented with EDTA Free […] protease inhibitor (Sigma Aldrich) and 25 U ml−1 Benzonase (Novagen). Cells were resuspended and rotated at 4 °C for 90 min. Benzonase was then inhibited by adjusted NaCl concentration to 200 mM and with the addition of 2 mM EDTA, followed by rotation for a further 30 min at 4 °C on a carousel. The cell suspension was then centrifuged at 16,000 x g for 25 min at 4 °C. […] The supernatant, now containing eluted material, was transferred to a new 1.5 ml microcentrifuge tube ready for downstream western blot analysis.

[2] = test system: eGFP-SLX4 interaction with TOPBP1, MUS81, ERCC1; test: eGFP-SLX4 co-immunoprecipitation, mitotic HEK293TN cells; conditions: eGFP-SLX4 Co-IP; RO-3306 7 µM, 30 min, nocodazole-synchronised
Protocol: as §1, §2, §3

[3] = test system: RPE1 p53-/- cells; test: Immunofluorescence foci, RPE1 p53-/- cells; conditions: RPE1 p53-/- cells treated with aphidicolin followed by acute CDK1i
Protocol: Immunofluorescence microscopy […] For detection of micronuclei, cells were fixed in 250 mM HEPES pH 7.5, 0.1% Triton X-100, 4% PFA in PBS for 20 minutes at 4 °C. Coverslips were then incubated for 5 min in 1x PBS with three buffer changes followed by incubation with 0.5% Triton X-100/ PBS for 10 min at room temperature. Coverslips were then incubated for 5 minutes in 1x PBS with three buffer changes. For EdU detection coverslips were transferred to a humidified chamber and incubated in EdU click it reaction buffer containing Alexafluor 488 azide for 1 h at room temperature followed by three 5 min washes in 1x PBS. Coverslips were then incubated in 5% FBS/PBS for 1 h followed by overnight incubation at 4 °C with primary antibody diluted in 5% FBS/PBS. Coverslips were then washed 3 × 5 min in 1x PBS followed by 1 h incubation at room temperature in 5% FBS/PBS containing secondary antibodies. Coverslips were incubated a further three times for 5 min in 1x PBS. Coverslips were then mounted on superfrost microscopy slides using Vectashield mounting medium with DAPI (Vector laboratories, […]). […] Cells were fixed in […] for 15 min at room temperature, followed by 3 × 5 min washes in 1xPBS. Coverslips were then incubated in 0.5% Triton-X/PBS for 10 min at room temperature, followed by a further 3 × 5 min 1xPBS washes. Coverslips were then incubated in blocking buffer (2% BSA, 0.05% Tween-20) for 1 h at room temperature, followed by incubation in respective primary antibodies overnight at 4 °C. Coverslips were then washed 3x for 5 min in 1x PBS followed by incubation for 1 h at room temperature in blocking buffer containing secondary antibodies. Coverslips were then washed 3x for 5 min in 1x PBS and mounted with Vectashield PLUS antifade mounting medium with DAPI (Vector laboratories, […]). Images were acquired using a Zeiss Axio Observer Z1 MarianasTM Microscope attached with a CSU-SoRa spinning disk unit using either a Photometrics Kinetix sCMOS camera built by Intelligent Imaging Innovations (3i) or a Zeiss Axio Observer Z1 MarianasTM Microscope attached with a CSUX1 spinning disk unit and Hamamatsu Flash 4 CMOS camera built by Intelligent Imaging Innovations (3i) or using an Opera Phenix Plus high content imaging system (Revvity). In each case 405, 488 and 640 laser lines were used in addition to DAPI, GFP/FITC, iRFP/CY5 emission filters. Quantification was carried out using FIJI (ImageJ, RRID:SCR_003070) software, CellProfiler (Broad Institute), Harmony (Revvity) or using […] Microsystems). Images of mitotic cells were analysed in 3D with maximum Z projections used for representative images in the manuscript to assist with visualisation.For interphase cells 2D images were analysed.

O=C1NC(=NCc2cccs2)S/C1=C\c1ccc2ncccc2c1 [CDK1i]
SLX4 Thr1260 phosphorylation [1]: reduced; also recorded: marked reduction in SLX4 Thr1260 phosphorylation
SLX4 Thr1260 phosphorylation and binding of TOPBP1 [2]: reduced SLX4 phosphorylation of Thr1260 and binding of TOPBP1
eGFP-SLX4 interaction with MUS81 or ERCC1 [2]: did not affect its interaction with MUS81 or ERCC1
MUS81 and TOPBP1 foci formation in prometaphase [3]: impairment of MUS81 and TOPBP1 foci formation in prometaphase cells
